The values below come from the NIST ThermoML archive (doi:10.1021/je060086x).

Usually mass density stands for the mass of a sample divided by its volume. What is called refractive index is a measure of how strongly the sample bends light.

For data set [1] the following is noted: 298.15 K; 101.33 kPa; Liquid.
Data set [2] is described as follows: refractive index (Na D-line) (dimensionless). The conditions noted are these: 298.15 K; 101.33 kPa; Liquid; Standard Abbe refractometry.
The nature of data set [3]: excess molar enthalpy (molar enthalpy of mixing); xn = mol fraction of the nth substance listed. The conditions noted are these: 298.15 K, 101 kPa, Liquid.

± gives the expanded uncertainty stated by the source.

Regarding `CC(O)CO` (stereo not given) [1,2-propanediol], in data set [1], the mass density was 1032.61 ± 0.31 kg/m3. In addition, the refractive index in data set [2] was 1.4323 ± 0.0005.

For `CC(O)CO` (stereo not given) [1,2-propanediol] + CCCCCCO, the excess molar enthalpy in data set [3] (x1 = 0.0905) was found to be 0.349 ± 0.015 kJ/mol; in data set [3] (x1 = 0.1929), 0.577 ± 0.022 kJ/mol; in data set [3] (x1 = 0.2872), 0.691 ± 0.026 kJ/mol; in data set [3] (x1 = 0.3828) it was 0.747 ± 0.028 kJ/mol; in data set [3] (x1 = 0.4778) it was 0.756 ± 0.029 kJ/mol; in data set [3] (x1 = 0.5711), 0.724 ± 0.027 kJ/mol. Besides, the excess molar enthalpy in data set [3] (x1 = 0.6718) was 0.656 ± 0.025 kJ/mol; in data set [3] (x1 = 0.7021), 0.612 ± 0.024 kJ/mol; in data set [3] (x1 = 0.7996), 0.485 ± 0.019 kJ/mol; in data set [3] (x1 = 0.904), 0.282 ± 0.012 kJ/mol.

Consider `CC(O)CO` (stereo not given) [1,2-propanediol] + CCCCCO, for which the excess molar enthalpy was determined as 0.324 ± 0.014 kJ/mol in data set [3] (x1 = 0.0914); 0.518 ± 0.02 kJ/mol in data set [3] (x1 = 0.1843); 0.628 ± 0.024 kJ/mol in data set [3] (x1 = 0.2821); 0.678 ± 0.026 kJ/mol in data set [3] (x1 = 0.3755); 0.68 ± 0.026 kJ/mol in data set [3] (x1 = 0.4761); 0.64 ± 0.025 kJ/mol in data set [3] (x1 = 0.577). The excess molar enthalpy in data set [3] (x1 = 0.6082) is 0.609 ± 0.024 kJ/mol; in data set [3] (x1 = 0.7027) it was 0.527 ± 0.021 kJ/mol; in data set [3] (x1 = 0.802) it was 0.403 ± 0.016 kJ/mol; in data set [3] (x1 = 0.9014) it was 0.23 ± 0.01 kJ/mol.

As to `CC(O)CO` (stereo not given) [1,2-propanediol] + CCCCO, the excess molar enthalpy in data set [3] (x1 = 0.1007) worked out at 0.308 ± 0.013 kJ/mol; in data set [3] (x1 = 0.1971), 0.476 ± 0.019 kJ/mol; in data set [3] (x1 = 0.2945), 0.565 ± 0.022 kJ/mol; in data set [3] (x1 = 0.3853), 0.597 ± 0.023 kJ/mol; in data set [3] (x1 = 0.4758) it was 0.592 ± 0.023 kJ/mol; in data set [3] (x1 = 0.5644) it was 0.557 ± 0.022 kJ/mol. The excess molar enthalpy in data set [3] (x1 = 0.6047) worked out at 0.519 ± 0.02 kJ/mol; in data set [3] (x1 = 0.7062), 0.434 ± 0.017 kJ/mol; in data set [3] (x1 = 0.8047), 0.323 ± 0.014 kJ/mol; in data set [3] (x1 = 0.9026) it was 0.18 ± 0.0087 kJ/mol.

As for `CC(O)CO` (stereo not given) [1,2-propanediol] + CCCO, the excess molar enthalpy in data set [3] (x1 = 0.1008) is 0.228 ± 0.01 kJ/mol; in data set [3] (x1 = 0.201) it was 0.364 ± 0.015 kJ/mol; in data set [3] (x1 = 0.3036), 0.44 ± 0.018 kJ/mol; in data set [3] (x1 = 0.4025) it was 0.466 ± 0.018 kJ/mol; in data set [3] (x1 = 0.5001), 0.446 ± 0.018 kJ/mol; in data set [3] (x1 = 0.5049), 0.456 ± 0.018 kJ/mol. In addition, the excess molar enthalpy in data set [3] (x1 = 0.6007) turned out to be 0.407 ± 0.017 kJ/mol; in data set [3] (x1 = 0.7015), 0.338 ± 0.014 kJ/mol; in data set [3] (x1 = 0.8011) it was 0.246 ± 0.011 kJ/mol; in data set [3] (x1 = 0.9009), 0.132 ± 0.0072 kJ/mol.

Turning to `CC(O)CO` (stereo not given) [1,2-propanediol] + CCO, the excess molar enthalpy in data set [3] (x1 = 0.0997) came out at 0.0899 ± 0.0059 kJ/mol; in data set [3] (x1 = 0.1948), 0.144 ± 0.0076 kJ/mol; in data set [3] (x1 = 0.2875) it was 0.176 ± 0.0086 kJ/mol; in data set [3] (x1 = 0.381) it was 0.19 ± 0.009 kJ/mol; in data set [3] (x1 = 0.4756) it was 0.189 ± 0.009 kJ/mol; in data set [3] (x1 = 0.4952) it was 0.199 ± 0.0093 kJ/mol. The excess molar enthalpy in data set [3] (x1 = 0.5972) came to 0.179 ± 0.0087 kJ/mol; in data set [3] (x1 = 0.6991), 0.148 ± 0.0077 kJ/mol; in data set [3] (x1 = 0.8005) it was 0.106 ± 0.0064 kJ/mol; in data set [3] (x1 = 0.9004), 0.0569 ± 0.0049 kJ/mol.

Consider `CC(O)CO` (stereo not given) [1,2-propanediol] + CO, for which the excess molar enthalpy was -0.0253 ± 0.0039 kJ/mol in data set [3] (x1 = 0.0787); -0.042 ± 0.0044 kJ/mol in data set [3] (x1 = 0.1565); -0.0532 ± 0.0047 kJ/mol in data set [3] (x1 = 0.2336); -0.0598 ± 0.005 kJ/mol in data set [3] (x1 = 0.3099); -0.0632 ± 0.0051 kJ/mol in data set [3] (x1 = 0.3885); -0.0586 ± 0.0049 kJ/mol in data set [3] (x1 = 0.3952). Also, the excess molar enthalpy in data set [3] (x1 = 0.4998) was -0.0567 ± 0.0049 kJ/mol; in data set [3] (x1 = 0.6004) it was -0.0518 ± 0.0047 kJ/mol; in data set [3] (x1 = 0.7015), -0.0425 ± 0.0044 kJ/mol; in data set [3] (x1 = 0.8026), -0.0311 ± 0.0041 kJ/mol; in data set [3] (x1 = 0.9), -0.0164 ± 0.0036 kJ/mol.

In the case of `CCCCO` [butan-1-ol], in data set [1], the mass density came out at 805.75 ± 0.23 kg/m3. For the same molecule, in data set [2], the refractive index turned out to be 1.3974 ± 0.0005.

`CCO` [ethanol]: in data set [1], the mass density was 785.15 ± 0.25 kg/m3. For the same molecule, the refractive index in data set [2] is 1.3595 ± 0.0005.

As to `CCCCCCO` [hexan-1-ol], the mass density in data set [1] worked out at 815.2 ± 1.9 kg/m3. In data set [2], the refractive index is listed as 1.4166 ± 0.0006.

Regarding `CO` [methanol], the mass density in data set [1] is 786.5 ± 0.51 kg/m3. For the same molecule, in data set [2], the refractive index is given as 1.327 ± 0.0005.

Consider `CCCCCO` [pentan-1-ol], for which, in data set [1], the mass density stood at 810.88 ± 0.94 kg/m3. Further, the refractive index in data set [2] stood at 1.4089 ± 0.0005.

As to `CCCO` [propan-1-ol], in data set [1], the mass density stood at 799.51 ± 0.24 kg/m3. Also, in data set [2], the refractive index was determined as 1.3833 ± 0.0005.
